Laboratory results taken from patent publication US8846949B2, “Pyrrolopyrazoles as N-type calcium channel blockers” (Janssen Pharmaceutica NV, priority 2012, dated 2014).
Read-outs that look alike come from different tables or passages of the source.

Legend:
N-type calcium channel = target: T1, N-type calcium channel (Homo sapiens, UniProt Q00975); assay: Automated electrophysiology assay (QPatch-HT whole-cell patch clamp); type: cell-based
T1 construct: expressed in transfected cells
Protocol: Cells were grown in T175 flasks to 50%-90% confluence. At the time of use, cells were enzymatically treated with Detachin (Genlantis, San Diego, Calif. USA), centrifuged, rinsed, and resuspended in 293 SFM II media (Life Technologies, Grand Island, N.Y. U.S.A.) supplemented with 25 mM HEPES (Sigma-Aldrich, St. Louis, Mo. U.S.A.) to a concentration of 2-3×10^6 cells/mL. Cells were added to the automated cell preparation station on the QPatch-HT (Sophion Biosciences, North Brunswick, N.J. U.S.A.), and following a 10- to 30-min recovery period with gentle stirring, the assay protocol was initiated. During the automated cell preparation, cells were collected, centrifuged and resuspended in an extracellular (EC) solution containing 132 mM NaCl, 1.8 mM CaCl2, 5.4 mM KCl, 0.8 mM MgCl2, 10 mM glucose, and 10 mM HEPES (pH=7.4), adjusted with sucrose to approximately 315 m0sm. The QPlate was primed with an intracellular solution containing 135 mM CsCl, 10 mM EGTA, 4 MgATP, 0.3 NaGTP, and 20 mM HEPES (pH=7.2), adjusted to approximately 290 m0sm with deionized water and the EC solution. Cells were added to the prepared QPlate wells by robotic pipettes of the QPatch-HT.
For cells determined to be in stable whole-cell patch clamp, the EC solution was replaced with a barium (Ba)/triethylammonium (TEA) solution containing 140 mM TEA-Cl, 10 mM BaCl2, 0.8 mM MgCl2, 10 mM glucose and 10 mM HEPES (pH=7.4). High (40 mM) BaCl2 concentrations were made with adjustments to TEA-C1 (90 mM) to maintain the osmolarity. From a resting potential of −80 mV, a train of depolarizing pulses (15 pulses at 5 Hz, +20 mV) was delivered to the cell once every 30 sec for eight trains (4 min total), and the resulting currents were measured during a control period (no compound). This protocol was repeated for each subsequent addition of control buffer with or without compound (three periods total, each with four trains). The current generated in the 1st and 15th pulses of the last train of each period in the presence of each drug concentration was normalized to the current generated during the control period at the respective pulses (representing low- and high-frequency stimulation, respectively). Data from both the second and third drug application periods were analyzed for each cell. A final addition of Ba/TEA solution containing 60-100 μM CdCl2 was made to block all N-type current and to “zero” the currents for each cell. All buffer/compound additions were made using a “spitting” feature of the QPatch-HT, which added three repetitions of 5 μL solution at the beginning of each recording period.
To examine closed-state inactivation, cells were subjected to a channel-activating 50-msec depolarizing step pulse from −80 to +10 mV, followed by a 5-sec nonactivating step to voltages ranging from −130 to −60 mV in 10 mV increments and then a 50-ms step from −80 to +10 mV to assess the remaining current. Currents from the activating voltage pulse were normalized to the peak value of the test pulse following the −130 mV step and fit to a Boltzman equation to obtain the V1/2. Roscovitine (Sigma-Aldrich) was prepared as a 100 mM stock in dimethyl sulfoxide and diluted to the indicated working concentrations. […]. Compounds of Formula (I) were diluted first into dimethyl sulfoxide and then into 10% pluronic F-127 in water (Life Technologies), sonicated for 1 min and diluted into EC buffer. Vehicle controls were run in parallel in all experiments.
Unless otherwise indicated, statistics for comparing among electrophysiological results utilized a one-way analysis of variance with Fisher's least squares determination test for pair-wise comparison.

[1] = target: T2, N-type calcium channel α1B (Cav2.2), β3 and α2δ subunits (Homo sapiens, UniProt Q00975); assay: Functional assay, antagonism of N-type calcium channel (FDSS calcium mobilization response to KCl depolarization); type: cell-based; conditions: for IC50: HEK stable cell line, 50 mM KCl depolarization, six-point concentration-response
T2 construct: expressed in transfected cells
Protocol: A stable cell line (HEK parent) co-expressing the α1B (Cav2.2), β3 and α2δ subunits of the N-type calcium channel subunits was used. These cells were routinely grown as monolayers in low glucose-containing Dulbecco's Modified Eagle Medium supplemented with 10% FBS, 2 mM L-glutamine, 100 I.U./mL penicillin, 100 μg/mL streptomycin, 400 μg/mL G418 and 200 μg/mL Zeocin (split ratio=1:5). Cells were maintained in 5% CO2 at 37° C. Compounds of Formula (I) were prepared as 10 mM stocks in DMSO from neat compound, if available. Otherwise, the 5 or 10 mM DMSO stock solutions provided in-house were used.
Calcium mobilization responses to KCl depolarization were evaluated by measuring the intensity of calcium-mediated fluorescent signal in the presence of BD Calcium Assay Dye (BD Biosciences, Franklin Lakes, N.J., U.S.A.), utilizing a Functional Drug Screening System (FDSS) by Hamamatsu Corporation (Bridgewater, N.J. U.S.A.).
Twenty-four hr prior to assay, cells were seeded in clear-base poly-D-lysine-coated 384-well plates (BD Biosciences) at a density of 5,000 cells per well in culture medium and grown overnight in 5% CO2 at 37° C. On the day of assay, growth media were removed, and cells were loaded with BD calcium assay dye (BD Biosciences) for 35 min at 37° C. under 5% CO2 and then for 25 min at room temp. Utilizing the FDSS, cells were exposed to representative compounds of Formula (I) at varying concentrations, and intracellular calcium was measured for 5 min prior to the addition of 50 mM KCl for an additional 3 min of measurement.
IC50 values for representative compounds of Formula (I) were determined from six-point concentration-response experiments and represent the concentration of said compound required to inhibit 50% of the maximal response. Maximal fluorescence intensity (FI) achieved upon addition of 50 mM KCl was exported from the FDSS software and further analyzed using GraphPad Prism 3.02 (Graph Pad Software Inc., San Diego, Calif., U.S.A.). Data were normalized to the maximum average counts from quadruplicate wells for each condition in the presence of 50 mM KCl and to the minimum average counts in the presence of buffer. Theoretical curves were generated using nonlinear regression curve-fitting analysis of either sigmoidal concentration-response or sigmoidal concentration-response (variable slope), and the IC50 values with the best-fit curve determined by GraphPad Prism were reported.

[2] = high frequency (15th pulse of train, 5 Hz), read-out: QPatch at High Frequency % Inhibition
[3] = low frequency (1st pulse of train), read-out: QPatch at Low Frequency % Inhibition
[4] = 1 μM, high frequency (15th pulse of train, 5 Hz), read-out: QPatch at High Frequency % Inhibition
[5] = 1 μM, low frequency (1st pulse of train), read-out: QPatch at Low Frequency % Inhibition

T2 sequence (Q00975 whole entry): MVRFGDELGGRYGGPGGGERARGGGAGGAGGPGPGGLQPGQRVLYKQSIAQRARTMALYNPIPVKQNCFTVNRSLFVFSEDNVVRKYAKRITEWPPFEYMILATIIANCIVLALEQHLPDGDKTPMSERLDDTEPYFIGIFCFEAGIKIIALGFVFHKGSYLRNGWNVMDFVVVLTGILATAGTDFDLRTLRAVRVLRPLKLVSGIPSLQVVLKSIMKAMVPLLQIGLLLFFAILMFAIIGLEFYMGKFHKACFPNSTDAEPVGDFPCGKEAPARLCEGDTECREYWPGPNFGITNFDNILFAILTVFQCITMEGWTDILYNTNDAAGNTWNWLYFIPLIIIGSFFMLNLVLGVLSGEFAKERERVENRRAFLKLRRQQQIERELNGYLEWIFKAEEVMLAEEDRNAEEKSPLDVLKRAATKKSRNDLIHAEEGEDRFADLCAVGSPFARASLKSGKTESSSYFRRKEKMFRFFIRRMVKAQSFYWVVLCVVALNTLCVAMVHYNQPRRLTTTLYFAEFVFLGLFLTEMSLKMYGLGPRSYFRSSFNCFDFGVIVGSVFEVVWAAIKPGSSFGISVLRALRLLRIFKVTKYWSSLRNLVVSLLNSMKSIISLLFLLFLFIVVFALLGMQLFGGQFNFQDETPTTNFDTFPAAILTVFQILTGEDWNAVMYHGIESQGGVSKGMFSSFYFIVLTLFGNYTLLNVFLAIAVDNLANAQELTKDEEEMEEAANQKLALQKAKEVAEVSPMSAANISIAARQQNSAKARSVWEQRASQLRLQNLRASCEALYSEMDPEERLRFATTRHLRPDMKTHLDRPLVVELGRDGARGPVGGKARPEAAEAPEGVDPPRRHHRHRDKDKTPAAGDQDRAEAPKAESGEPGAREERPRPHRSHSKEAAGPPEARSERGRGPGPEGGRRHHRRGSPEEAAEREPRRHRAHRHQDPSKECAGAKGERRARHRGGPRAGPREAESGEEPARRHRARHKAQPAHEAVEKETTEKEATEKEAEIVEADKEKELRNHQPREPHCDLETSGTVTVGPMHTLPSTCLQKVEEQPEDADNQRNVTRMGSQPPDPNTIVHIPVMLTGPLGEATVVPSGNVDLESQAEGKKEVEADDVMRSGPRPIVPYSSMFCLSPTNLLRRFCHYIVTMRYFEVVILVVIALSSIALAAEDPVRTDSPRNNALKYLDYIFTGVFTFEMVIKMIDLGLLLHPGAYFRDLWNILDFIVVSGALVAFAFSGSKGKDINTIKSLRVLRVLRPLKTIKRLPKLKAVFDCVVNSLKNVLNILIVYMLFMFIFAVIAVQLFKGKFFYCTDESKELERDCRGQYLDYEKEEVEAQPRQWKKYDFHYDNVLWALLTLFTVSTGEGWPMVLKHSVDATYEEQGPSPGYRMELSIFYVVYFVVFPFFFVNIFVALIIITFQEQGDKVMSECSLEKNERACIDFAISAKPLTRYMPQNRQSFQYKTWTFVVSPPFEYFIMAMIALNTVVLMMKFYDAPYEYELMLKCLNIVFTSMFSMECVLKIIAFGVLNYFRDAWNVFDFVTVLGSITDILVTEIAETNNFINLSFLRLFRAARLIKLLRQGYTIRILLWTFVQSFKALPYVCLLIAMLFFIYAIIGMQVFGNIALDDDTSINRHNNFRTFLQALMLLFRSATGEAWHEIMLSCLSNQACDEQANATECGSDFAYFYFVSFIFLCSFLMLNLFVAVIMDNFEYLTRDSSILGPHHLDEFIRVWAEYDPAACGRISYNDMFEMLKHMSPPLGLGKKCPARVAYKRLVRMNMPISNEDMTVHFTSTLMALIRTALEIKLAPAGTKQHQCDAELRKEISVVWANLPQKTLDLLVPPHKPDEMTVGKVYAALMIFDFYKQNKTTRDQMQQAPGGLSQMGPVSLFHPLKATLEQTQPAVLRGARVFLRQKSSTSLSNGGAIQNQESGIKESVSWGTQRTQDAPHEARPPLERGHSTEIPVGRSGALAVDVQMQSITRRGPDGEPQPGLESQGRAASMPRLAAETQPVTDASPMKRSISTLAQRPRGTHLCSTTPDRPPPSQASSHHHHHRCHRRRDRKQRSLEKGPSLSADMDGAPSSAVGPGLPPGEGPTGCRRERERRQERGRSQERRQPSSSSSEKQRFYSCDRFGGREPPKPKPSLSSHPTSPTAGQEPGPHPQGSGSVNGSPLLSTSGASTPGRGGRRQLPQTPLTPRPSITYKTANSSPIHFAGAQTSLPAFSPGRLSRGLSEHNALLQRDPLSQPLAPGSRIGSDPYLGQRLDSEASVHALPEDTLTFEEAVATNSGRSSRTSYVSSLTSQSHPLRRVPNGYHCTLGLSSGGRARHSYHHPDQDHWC
T2 sequence (P54284 whole entry partner): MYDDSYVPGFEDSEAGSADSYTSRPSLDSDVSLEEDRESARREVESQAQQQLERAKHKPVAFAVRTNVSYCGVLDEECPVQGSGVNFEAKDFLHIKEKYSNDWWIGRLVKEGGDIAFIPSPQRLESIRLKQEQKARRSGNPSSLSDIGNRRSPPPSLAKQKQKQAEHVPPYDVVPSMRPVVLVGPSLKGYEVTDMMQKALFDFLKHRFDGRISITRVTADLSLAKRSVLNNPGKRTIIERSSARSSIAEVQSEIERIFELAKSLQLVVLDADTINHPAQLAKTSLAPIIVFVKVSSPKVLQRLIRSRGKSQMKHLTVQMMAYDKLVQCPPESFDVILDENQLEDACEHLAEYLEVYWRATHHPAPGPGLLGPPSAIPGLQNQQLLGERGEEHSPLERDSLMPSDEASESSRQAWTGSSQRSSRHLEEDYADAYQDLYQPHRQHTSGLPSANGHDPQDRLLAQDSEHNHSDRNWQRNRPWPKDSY
T2 sequence (P54289 25-956 partner limits assumed): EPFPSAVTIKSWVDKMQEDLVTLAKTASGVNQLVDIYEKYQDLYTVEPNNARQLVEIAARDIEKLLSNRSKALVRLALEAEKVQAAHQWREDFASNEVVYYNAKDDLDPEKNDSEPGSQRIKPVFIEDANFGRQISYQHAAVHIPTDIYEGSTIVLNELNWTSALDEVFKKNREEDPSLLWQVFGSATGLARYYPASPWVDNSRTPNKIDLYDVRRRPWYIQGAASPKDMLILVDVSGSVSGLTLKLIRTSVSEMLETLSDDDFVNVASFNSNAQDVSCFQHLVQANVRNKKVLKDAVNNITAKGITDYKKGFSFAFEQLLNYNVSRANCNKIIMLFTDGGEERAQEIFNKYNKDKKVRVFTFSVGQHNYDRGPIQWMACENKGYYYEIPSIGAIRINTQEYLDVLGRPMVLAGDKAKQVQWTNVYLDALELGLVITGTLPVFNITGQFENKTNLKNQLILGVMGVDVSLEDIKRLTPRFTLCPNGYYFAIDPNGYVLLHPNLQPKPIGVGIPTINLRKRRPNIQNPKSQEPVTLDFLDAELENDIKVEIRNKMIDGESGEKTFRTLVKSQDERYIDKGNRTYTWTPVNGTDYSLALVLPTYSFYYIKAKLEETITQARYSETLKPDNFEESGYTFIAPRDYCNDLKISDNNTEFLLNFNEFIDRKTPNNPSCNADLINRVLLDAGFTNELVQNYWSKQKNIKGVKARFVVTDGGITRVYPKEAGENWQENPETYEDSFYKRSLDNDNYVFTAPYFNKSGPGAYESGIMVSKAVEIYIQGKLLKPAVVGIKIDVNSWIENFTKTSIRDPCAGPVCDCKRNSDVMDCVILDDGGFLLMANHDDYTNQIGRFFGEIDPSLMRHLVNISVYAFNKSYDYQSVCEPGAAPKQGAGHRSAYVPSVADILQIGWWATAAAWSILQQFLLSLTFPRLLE
T2 sequence (P54289 957-1103 partner limits assumed): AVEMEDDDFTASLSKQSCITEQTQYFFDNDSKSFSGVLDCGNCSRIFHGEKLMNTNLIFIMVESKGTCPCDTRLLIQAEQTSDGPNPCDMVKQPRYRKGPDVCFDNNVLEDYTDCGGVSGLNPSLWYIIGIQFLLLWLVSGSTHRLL
T1 sequence (Q00975 whole entry): as the sequence (Q00975 whole entry) above
T1 sequence (P54284 whole entry partner): as the sequence (P54284 whole entry partner) above
T1 sequence (P54289 25-956 partner limits assumed): as the sequence (P54289 25-956 partner limits assumed) above
T1 sequence (P54289 957-1103 partner limits assumed): as the sequence (P54289 957-1103 partner limits assumed) above

| SMILES | IC50 [1] | inhibition at 1 µM (N-type calcium channel; [4]) | inhibition at 1 µM (N-type calcium channel; [5]) | further results |
| --- | --- | --- | --- | --- |
| COc1ccccc1-n1nc2c(c1-c1ccc(Cl)cc1)CN(S(=O)(=O)N1C[C@H](C)O[C@@H](C)C1)C2 (mixture of isomers) [Cpd 61, 3-(4-Chlorophenyl)-5-{[(2S,6S)-2,6-dimethylmorpholin-4-yl]sulfonyl}-2-(2-methoxyphenyl)-2,4,5,6-tetrahydropyrrolo[3,4-c]pyrazole] | 0.005 µM |  |  | inhibition at 0.1 µM (N-type calcium channel; [2]): 50%; inhibition at 0.1 µM (N-type calcium channel; [3]): 53% |
| CCc1ccccc1-n1nc2c(c1-c1ccc(Cl)cc1)CN(S(C)(=O)=O)C2 [Cpd 2, 3-(4-Chlorophenyl)-2-(2-ethylphenyl)-5-(methylsulfonyl)-2,4,5,6-tetrahydropyrrolo[3,4-c]pyrazole] | 0.085 µM | 22% | -9% |  |
| CCc1ccccc1-n1nc2c(c1-c1ccc(Cl)cc1)CN(C(=O)c1ccncc1)C2 [Cpd 5, 3-(4-Chlorophenyl)-2-(2-ethylphenyl)-5-(pyridin-4-ylcarbonyl)-2,4,5,6-tetrahydropyrrolo[3,4-c]pyrazole] | 0.2 µM | 37% | 11% | inhibition at 0.25 µM (N-type calcium channel; [2]): 12%; inhibition at 0.25 µM (N-type calcium channel; [3]): 0% |
| CCc1ccccc1-n1nc2c(c1-c1ccc(Cl)cc1)CN(C(=O)C(F)(F)F)C2 [Cpd 6, 3-(4-Chlorophenyl)-2-(2-ethylphenyl)-5-(trifluoroacetyl)-2,4,5,6-tetrahydropyrrolo[3,4-c]pyrazole] | 0.18 µM | 23% | 16% |  |
| CCc1ccccc1-n1nc2c(c1-c1ccc(Cl)cc1)CN(C(=O)CNC(=O)OC(C)(C)C)C2 [Cpd 11, tert-Butyl{2-[3-(4-chlorophenyl)-2-(2-ethylphenyl)-2,6-dihydropyrrolo[3,4-c]pyrazol-5 (4H)-yl]-2-oxoethyl}carbamate] | 0.1 µM | 68% | 37% | inhibition at 0.25 µM (N-type calcium channel; [2]): 31%; inhibition at 0.25 µM (N-type calcium channel; [3]): 14% |
| CS(=O)(=O)N1Cc2nn(-c3ccccc3OC(F)(F)F)c(-c3ccc(Cl)cc3)c2C1 [Cpd 20, 3-(4-Chlorophenyl)-5-(methylsulfonyl)-2-[2-(trifluoromethoxy)phenyl]-2,4,5,6-tetrahydropyrrolo[3,4-c]pyrazole] | 0.04 µM | 30% | 5% |  |
| CC(C)(C)OC(=O)NCC(=O)N1Cc2nn(-c3ccccc3OC(F)(F)F)c(-c3ccc(Cl)cc3)c2C1 [Cpd 22, tert-Butyl{2-[3-(4-chlorophenyl)-2-[2-(trifluoromethoxy)phenyl]-2,6-dihydropyrrolo[3,4-c]pyrazol-5(4H)-yl]-2-oxoethyl}carbamate] | 0.24 µM | 28% | 13% |  |
| FC(F)(F)Oc1ccccc1-n1nc2c(c1-c1ccc(Cl)cc1)CN(c1ccc3nc(Cl)ccc3c1)C2 [Cpd 27, 2-Chloro-6-[3-(4-chlorophenyl)-2-[2-(trifluoromethoxy)phenyl]-2,6-dihydropyrrolo[3,4-c]pyrazol-5(4H)-yl]quinoline] | 0.093 µM |  | -1% |  |
| COc1ccccc1-n1nc2c(c1-c1ccc(Cl)cc1)CN(C(=O)OC(C)(C)C)C2 [Cpd 28, tert-Butyl 3-(4-chlorophenyl)-2-(2-methoxyphenyl)-2,6-dihydropyrrolo[3,4-c]pyrazole-5(4H)-carboxylate] | 0.073 µM |  |  | inhibition at 1 µM (N-type calcium channel; read-out: QPatch at High Frequency % Inhibition): 52%; inhibition at 1 µM (N-type calcium channel; read-out: QPatch at Low Frequency % Inhibition): 25% |
| COc1ccccc1-n1nc2c(c1-c1ccc(Cl)cc1)CN(S(C)(=O)=O)C2 [Cpd 30, 3-(4-Chlorophenyl)-2-(2-methoxyphenyl)-5-(methylsulfonyl)-2,4,5,6-tetrahydropyrrolo[3,4-c]pyrazole] | 0.021 µM | 49% | 28% |  |
| COc1ccccc1-n1nc2c(c1-c1ccc(Cl)cc1)CN(S(=O)(=O)C(C)C)C2 [Cpd 31, 3-(4-Chlorophenyl)-2-(2-methoxyphenyl)-5-[(1-methylethyl)sulfonyl]-2,4,5,6-tetrahydropyrrolo[3,4-c]pyrazole] | 0.01 µM |  |  | inhibition at 0.1 µM (N-type calcium channel; [2]): 47%; inhibition at 0.1 µM (N-type calcium channel; [3]): 11%; inhibition at 0.33 µM ([1]; 0.33 μM compound, FDSS, 50 mM KCl): 94% |
| COc1ccccc1-n1nc2c(c1-c1ccc(Cl)cc1)CN(S(=O)(=O)C1CC1)C2 [Cpd 32, 3-(4-Chlorophenyl)-5-(cyclopropylsulfonyl)-2-(2-methoxyphenyl)-2,4,5,6-tetrahydropyrrolo[3,4-c]pyrazole] | 0.021 µM | 83% | 74% | inhibition at 0.03 µM (N-type calcium channel; [2]): -5%; inhibition at 0.03 µM (N-type calcium channel; [3]): -6%; inhibition at 0.05 µM (N-type calcium channel; [2]): 23%; inhibition at 0.05 µM (N-type calcium channel; [3]): 10%; inhibition at 0.25 µM (N-type calcium channel; [2]): 64%; inhibition at 0.25 µM (N-type calcium channel; [3]): 57% |
| COc1ccccc1-n1nc2c(c1-c1ccc(Cl)cc1)CN(S(=O)(=O)N(C)C)C2 [Cpd 33, 3-(4-Chlorophenyl)-2-(2-methoxyphenyl)-N,N-dimethyl-2,6-dihydropyrrolo[3,4-c]pyrazole-5(4H)-sulfonamide] | 0.009 µM | 78% | 74% |  |
